Tests used:
[1] = Lung S9 metabolism; type: in vitro ADME, human
Description: The time 0, 15, 30, and 60 minute samples were analyzed for parent compound by high resolution LC-MS/MS. Lung S9 fractions from human (lot 1410245) were purchased from XenoTech LLC (Lenexa, Kans.). NADPH (Sigma Aldrich, N1630) and 3-phosphoadenosine 5-phosphosulfate (PAPS) (Sigma Aldrich, A1651) were purchased from Sigma Aldrich (St. Louis, Mo.). Acetonitrile and water were obtained from VWR (Radnor, Pa.) and were of HPLC grade or better. Raloxifene and formic acid was purchased from Sigma Aldrich (St. Louis, Mo.). Lung S9 incubations were performed in a water bath at 37° C. in a 96-well polypropylene plate. […] Louis, Mo.), 3 mM magnesium chloride (Sigma Aldrich, M1028) and in the presence of 100 μM PAPS (Sigma-Aldrich, St. […] Incubation volumes consisted of 400 μL and time points were taken at 0, 15, 30, and 60 minutes by the removal of a 70 μL aliquot and dilution into 140 μL acetonitrile (0% formic acid). All samples were centrifuged at 2250 g for 10 minutes at 5° C. Supernatant […] was taken from the centrifuged samples and diluted into 100 μL HPLC water containing internal standard. The samples were run on a Dionex Ultimate 3000 Auto sampler and analyzed using a Thermo Q-Exactive High Resolution Mass Spectrometer (Thermo, Waltham, Mass.) in Full Scan mode in conjunction with an Atlantis T3 column 3 μM-2.1×50 mm (Waters Inc., 186003717). Mobile Phase A consisted of Water+0.2% formic acid and Mobile Phase B consisted of acetonitrile +0.2% formic acid. Peak integration was accomplished using Gubbs GMSU software (Gubbs Inc., Alpharetta, Ga.). For each sample, peak area ratios were calculated by dividing the analyte peak area by the internal standard peak area. For each incubation, the peak area ratios of the analytes in each t0 was set to 100%, and the peak areas ratios from the 60 minute samples were converted to percentages remaining relative to the corresponding t0. Determination of sulfate metabolite formation was made qualitatively by observation of early-eluting peak in the parent ion channel which, based on historical internal data, corresponded to the O-sulfate metabolite of each parent compound.

[2] = system: IL-12 stimulated STAT4 phosphorylation in CD3+ T cells; assay: Cellular JAK potency assay: inhibition of IL-12-induced pSTAT4; type: cell-based; settings: T-cell; CD3+ T cells from human whole blood; read-out: pIC50, inhibition of IL-12-induced pSTAT4 (converted)
Description: The potency of test compounds for inhibition of interleukin-12 (IL-12) stimulated STAT4 phosphorylation was measured in CD3-positive (CD3+) T cells derived from human whole blood (Stanford Blood Center) using flow cytometry. Because IL-12 signals through JAK, this assay provides a measure of JAK cellular potency. CD3+ T cells were identified using a phycoerythrin (PE) conjugated anti-CD3 antibody (clone UCHT1, BD Biosciences), and an Alexa Fluor 647 conjugated anti-pSTAT4 antibody (clone 38/p-Stat4, BD Biosciences) was used to detect STAT4 phosphorylation. Human peripheral blood mononuclear cells (PBMC) were isolated from human whole blood of healthy donors using a ficoll gradient. […] After incubation, cells were washed twice in FACS buffer before being analyzed using a MACSQuant flow cytometer (Miltenyi). To determine the inhibitory potency of the test compound, the median fluorescent intensity (MFI) of pSTAT4 was measured in CD3+ T cells. IC50 values were determined from analysis of the inhibition curves of MFI vs compound concentration. Data are expressed as pIC50 (negative decadic logarithm IC50) values.

**Q.** Which results are given for CCc1cc(O)ccc1-c1ccc2c(-c3nc4c([nH]3)CN(C(C)C)[C@H](C(=O)N3CC(N(C)C)C3)C4)n[nH]c2c1 [Compound 1, (S)-(3-(dimethylamino)azetidin-1-yl)(2-(6-(2-ethyl-4-hydroxyphenyl)-1H-indazol-3-yl)-5-isopropyl-4,5,6,7-tetrahydro-3H-imidazo[4,5-c]pyridin-6-yl)methanone]?
**A.** Compound Remaining at 60 min (%) ([1]; human lung S9, 1 μM compound, 1 mg/mL S9 protein, 60 min): 81%; Sulfate Appearance ([1]; human lung S9, qualitative O-sulfate metabolite peak): Yes; microsomal CLint at 1 µM ([1]; human lung S9 fraction, pH 7.4, human lung S9, 1 μM compound, 1 mg/mL S9 protein, NADPH and PAPS, read-out: Clearance): 3.5 µL/min/mg; IC50 [2]: 1 µM
